Results from US7875270B2, “Treatment solution and method for preventing posterior capsular opacification by selectively inducing detachment and/or death of lens epithelial cells” (Abbott Medical Optics Inc., priority 2002, dated 2011).

System: in vivo rabbit eyes
Assay: In vivo prevention of PCO after cataract operation in rabbit eyes
Conditions: bumetanide and hyperosmotic NaCl
Method: The experimental group includes sixteen rabbit eyes and the control group includes four rabbit eyes. A sham cataract operation is performed on the control animals. The therapy is introduced to the others.
The pupil of each rabbit eye is preoperatively dilated with topical G Phenylephrine 10% (Alcon Labs., Inc., China) and G Cyclopentolate 1% (Bausch & Lomb Pharm., Inc., USA) three times in one hour. The rabbits are anesthetized with ketamine hydrochloride (5 mg kg-1) and xylazine hydrochloride (2 mg kg-1) and placed on an operating table. A topical anesthetic (Dieaine hydrochloride 1%) is used every five minutes on two occasions. A wire lid speculum is placed to hold the eyelids open.
A 3.2 mm scleral tunnel incision into the eye is formed at the temporal limbus. The anterior chamber is maintained with viscoelastic substances and a 4-5 mm diameter continuous curvilinear capsularhexis (CCC) is made on the anterior surface of the lens to open its bag. The treatment solution is first introduced in the LECs by hydrodissection. This ensures that the treatment fluid immediately reaches under the entire anterior capsule/LECs. This process allows for (i) separation of the lens cortex from the capsule and lens epithelium, making removal of the lens cortex easier at a later stage of the operation and (ii) the LECs to be exposed to the treatment for enough time (more than five minutes in total time).
The crystalline lens is then removed using phacoemulsification (Universal II, Alcon Labs., Inc., China). The remaining cortex is aspirated thoroughly and removed as completely as possible to expose the LECs. The lens capsular bag is then partially filed with viscoelastic material in order to maintain its shape. The viscoelastic material should not cover the LECs when the treatment solution is applied.
The treatment is spread over the inner surface of the anterior capsular bag (where the LECs attach). The anterior capsular is continuously filled by using a syringe with a bent needle. Care is taken not to over flow the bag. After the treatment solution covered the capsule bag, it is left for five minutes and then removed using a syringe.
In a few cases, IOLs are inserted. […] At the same time, the incision is enlarged to 6.0 mm and a posterior ocular lens (IOLs) (poly-methyl methacrylate, PMMA) with a 6.5 mm optic is prepared and placed into the capsular bag.
The wound is closed with or without suture.
At the completion of the surgical procedure, each rabbit eye receives subconjunctival dexamethasone (0.25 ml) and gentamicin (0.25 ml). Postoperatively, atropine sulphate 1% ophthalmic solution and neomycin sulphate-polymyxin sulphate-dexamethasone ophthalmic ointment are administered twice daily for three weeks.
The animals are evaluated for three weeks and ten weeks. […] All rabbits are evaluated by slitlamp and scored for ocular responses at 1 day and at 1, 2 and 3 weeks. (See FIG. 17, Table 1.) Three and ten weeks after surgery, the animals are anesthetized using a 2 ml intramuscular injection of 11:1 mixture of ketamine hydrochloride and xylazine 20 mg/ml and then killed with a 2 ml intravenous injection of sodium pentobarbital.
The eye globes are enucleated (some of them fixed in neutral buffered formalin 10% solution for 24 hours) and are bisected coronally just anterior to the equator. Gross examination is performed to assess. PCO development. Photographs are taken from behind (Miyake-Apple posterior photographic technique) by using a digital camera fitted to an operating microscope (Leica/Wild MZ-8, Vashaw Scientific, Inc.).
The extent and severity of PCO is scored (see FIG. 17, Table 1) according to methods reported in the literature. The lens capsules are then fixed and evaluated under a microscope (Olumpus, Optical Co. Ltd.) and photographed with a digital camera.

Question: With `CCCCNc1cc(C(=O)O)cc(S(N)(=O)=O)c1Oc1ccccc1` [bumetanide] as the compound, how does the “Soemmering's ring” value read?
Answer: Some degree of Soemmering's ring forms

Question: What about the “cell proliferation on the lens anterior capsule” value (three weeks) of the same compound?
Answer: not significant cell proliferation

Question: What about the “development of CPCO and PPCO” value (three weeks follow up) of the same compound?
Answer: no CPCO and PPCO develop
